# Measured values from patent US9408850B2, “Substituted indazole derivatives active as kinase inhibitors” (NERVIANO MEDICAL SCIENCES S.R.L., priority 2011, dated 2016).
# How the values were obtained:
# [1] = target: KIT cytoplasmic domain (GST fused protein) (Homo sapiens (Human), UniProt P10721); assay: Biochemical assay for inhibitors of KIT kinase activity; conditions: 4 nM pre activated enzyme, 4.4 microM ATP, 60 minutes at r.t.
# Method: KIT cytoplasmic domain (aa 544-976end of the 976 aminoacid long full length sequence, accession number P10721 of UniProtKB/Swiss-Prot database) was cloned into pVL vector for expression in insect cells through the baculovirus system. The GST-KIT cytoplasmic domain has been expressed in Sf21 cells infected for 66 hrs at 27° C. The recombinant protein has been purified by affinity on GSH-sepharose and eluted with glutathione. […] General Principle-A specific peptidic substrate was trans-phosphorylated by the kinase in the presence of ATP traced with 33Pγ-ATP. At the end of the phosphorylation reaction, the not reacted ATP, cold and radioactive, was captured by an excess of dowex ion exchange resin that eventually settled by gravity to the bottom of the reaction plate. The supernatant was subsequently withdrawn and transferred into a counting plate that was then evaluated by β-counting. • ii. Dowex resin preparation-500 g of wet resin (SIGMA, custom prepared resin DOWEX 1×8 200-400 mesh, 2.5 Kg) were weighed out and diluted to 2 L in 150 mM sodium formate, pH 3.00. The resin was allowed to settle down overnight and then the supernatant was discarded. After three washes as above over a couple of days, the resin was allowed to settle and two volumes (with respect to the resin volume) were added of 150 mM sodium formate buffer. Biochemical Assay for Inhibitors of FLT3 Kinase Activity • i. Enzyme-The assay was performed using FLT3 cytoplasmic domain product and purified in house as GST fused protein. […] The peptide was purchased from American Peptide Company (Sunnyvale, Calif.). Biochemical Assay for Inhibitors of KIT Kinase Activity • i. Enzyme-The assay has been performed using KIT cytoplasmic domain product and purified in house as GST fused protein. […] NO: 2). The peptide was purchased from American Peptide Company (Sunnyvale, Calif.). Compound Testing • i. […] An automated station for serial dilutions (Biomek FX, Beckman) was used for producing 1:3 dilutions in 100% DMSO, from line A1 to A10, and for all the compounds in the column. […] The following dispensation into the plates plus 3 cycles of mixing, done by the robot itself, started the kinase reaction. At this point, the correct concentrations were restored for all the reagents. The robot incubated the plates for 60 minutes at r.t., and then stopped the reaction by pipetting 60 microL of dowex resin suspension into the reaction mix. In order to avoid tip clogging, wide bore tips were used to dispense the resin suspension. Three cycles of mixing were done immediately after the addition of the resin. Another mixing cycle was performed after all the plates were stopped, this time using normal tips: the plates were then allowed to rest for about one hour in order to allow resin sedimentation. […] Data Fitting-Data were analyzed by an internally customized version of the SW package “Assay Explorer” that provided sigmoidal fitting of the ten-dilutions curves for IC50 determination in the secondary assays/hit confirmation routines. Cell-Based Assays for Inhibitors of FLT3 Kinase Activity In vitro Cell Proliferation Assay for Inhibitors of FLT3 Kinase Activity
# [2] = system: MOLM-13 cells, bearing a FLT3-ITD mutation; assay: In vitro cell proliferation assay (CellTiter-Glo), MOLM-13; assay type: cell-based; conditions: Homo sapiens, MOLM-13, 72 h
# Method: (§1) The human acute leukemia MOLM-13 AND MV-4-11 cells, bearing a FLT3-ITD mutation, were seeded (5000 cells/well) in white 384 well-plates in complete medium (RPMI 1640 plus 10% Fetal bovine serum) and treated with compounds dissolved in 0.1% DMSO, 24 h after seeding. The cells were incubated at 37° C. and 5% CO2 and after 72 h the plates were processed using CellTiter-Glo assay (Promega) following the manufacturer's instruction.
# (§2) CellTiter-Glo is a homogenous method based on the quantification of the ATP present, an indicator of metabolitically active cells. ATP was quantified using a system based on luciferase and D-luciferin resultant into light generation. The luminescent signal was proportional to the number of cells present in culture.
# (§3) Briefly, 25 microL/well reagent solution were added to each well and, after 5 minutes shaking, microplates were read by Envision (PerkinElmer) luminometer. Inhibitory activity was evaluated comparing treated versus control data using Symyx Assay Explorer (Symyx Technologies Inc.) program. IC50 was calculated using sigmoidal interpolation curve.
# [3] = target: FLT3 cytoplasmic domain (GST fused protein) (Homo sapiens (Human), UniProt P36888); assay: Biochemical assay for inhibitors of FLT3 kinase activity; conditions: 2 nM pre activated enzyme, 254 microM ATP, 60 minutes at r.t.
# Sequence of FLT3 cytoplasmic domain (GST fused protein) (P36888 564-993): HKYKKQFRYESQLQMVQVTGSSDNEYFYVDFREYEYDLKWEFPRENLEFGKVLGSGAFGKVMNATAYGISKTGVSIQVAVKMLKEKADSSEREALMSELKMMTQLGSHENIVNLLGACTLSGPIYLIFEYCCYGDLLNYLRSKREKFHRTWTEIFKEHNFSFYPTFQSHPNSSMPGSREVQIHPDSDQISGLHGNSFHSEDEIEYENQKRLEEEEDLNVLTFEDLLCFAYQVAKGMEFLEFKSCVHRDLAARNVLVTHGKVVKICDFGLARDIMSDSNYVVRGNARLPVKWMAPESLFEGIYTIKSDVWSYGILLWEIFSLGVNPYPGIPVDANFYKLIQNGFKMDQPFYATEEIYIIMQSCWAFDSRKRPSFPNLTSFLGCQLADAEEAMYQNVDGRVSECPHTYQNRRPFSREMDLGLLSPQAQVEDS
# Method: FLT3 cytoplasmic domain (aa 564-993end of the 993 aminoacid long full length sequence, accession number P36888 of UniProtKB/Swiss-Prot. database) was amplified by PCR starting from a testis cDNA library and then cloned into pVL vector for expression in insect cells through the baculovirus system. The GST-FLT3 cytoplasmic domain has been expressed in Sf21 cells infected for 72 hours at 27° C. The recombinant protein has been purified by affinity on GSH-sepharose and eluted with glutathione. A further purification step has been performed on heparine sepharose. […] General Principle-A specific peptidic substrate was trans-phosphorylated by the kinase in the presence of ATP traced with 33Pγ-ATP. At the end of the phosphorylation reaction, the not reacted ATP, cold and radioactive, was captured by an excess of dowex ion exchange resin that eventually settled by gravity to the bottom of the reaction plate. The supernatant was subsequently withdrawn and transferred into a counting plate that was then evaluated by β-counting. • ii. Dowex resin preparation-500 g of wet resin (SIGMA, custom prepared resin DOWEX 1×8 200-400 mesh, 2.5 Kg) were weighed out and diluted to 2 L in 150 mM sodium formate, pH 3.00. The resin was allowed to settle down overnight and then the supernatant was discarded. After three washes as above over a couple of days, the resin was allowed to settle and two volumes (with respect to the resin volume) were added of 150 mM sodium formate buffer. Biochemical Assay for Inhibitors of FLT3 Kinase Activity • i. Enzyme-The assay was performed using FLT3 cytoplasmic domain product and purified in house as GST fused protein. […] NO: 1). The peptide was purchased from American Peptide Company (Sunnyvale, Calif.). Biochemical Assay for Inhibitors of KIT Kinase Activity • i. Enzyme-The assay has been performed using KIT cytoplasmic domain product and purified in house as GST fused protein. […] NO: 2). The peptide was purchased from American Peptide Company (Sunnyvale, Calif.). Compound Testing • i. […] An automated station for serial dilutions (Biomek FX, Beckman) was used for producing 1:3 dilutions in 100% DMSO, from line A1 to A10, and for all the compounds in the column. […] The following dispensation into the plates plus 3 cycles of mixing, done by the robot itself, started the kinase reaction. At this point, the correct concentrations were restored for all the reagents. The robot incubated the plates for 60 minutes at r.t., and then stopped the reaction by pipetting 60 microL of dowex resin suspension into the reaction mix. In order to avoid tip clogging, wide bore tips were used to dispense the resin suspension. Three cycles of mixing were done immediately after the addition of the resin. Another mixing cycle was performed after all the plates were stopped, this time using normal tips: the plates were then allowed to rest for about one hour in order to allow resin sedimentation. […] Data Fitting-Data were analyzed by an internally customized version of the SW package “Assay Explorer” that provided sigmoidal fitting of the ten-dilutions curves for IC50 determination in the secondary assays/hit confirmation routines. Cell-Based Assays for Inhibitors of FLT3 Kinase Activity In vitro Cell Proliferation Assay for Inhibitors of FLT3 Kinase Activity
# [4] = system: MV-4-11 cells, bearing a FLT3-ITD mutation; assay: In vitro cell proliferation assay (CellTiter-Glo), MV-4-11; assay type: cell-based; conditions: Homo sapiens, MV4-11, MV-4-11, 72 h
# Method: as §1, §2, §3
# Sequence of KIT cytoplasmic domain (GST fused protein) (P10721 544-976): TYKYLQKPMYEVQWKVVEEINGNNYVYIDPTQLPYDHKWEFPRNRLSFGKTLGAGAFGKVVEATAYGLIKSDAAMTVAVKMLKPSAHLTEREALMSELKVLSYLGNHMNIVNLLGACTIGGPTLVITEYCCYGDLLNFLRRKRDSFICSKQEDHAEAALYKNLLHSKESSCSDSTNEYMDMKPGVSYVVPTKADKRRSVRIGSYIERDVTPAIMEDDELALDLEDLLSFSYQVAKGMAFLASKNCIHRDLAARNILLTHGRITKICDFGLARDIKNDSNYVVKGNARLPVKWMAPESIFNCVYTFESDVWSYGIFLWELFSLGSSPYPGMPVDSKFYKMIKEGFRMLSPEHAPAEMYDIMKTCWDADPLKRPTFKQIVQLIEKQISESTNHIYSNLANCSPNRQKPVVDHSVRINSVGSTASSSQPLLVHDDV
Compound,IC50 [1],IC50 [2],IC50 [3],IC50 [4]
"O=C(Nc1n[nH]c2cc(OCCOCc3ccccc3)ccc12)c1ccc(NC2CCOCC2)cc1 [Cpd. 26, N-[6-(2-Benzyloxy-ethoxy)-1H-indazol-3-yl]-4-(tetrahydro-pyran-4-ylamino)-benzamide]",124 nM,< 50 nM,90 nM,< 50 nM
"O=C(Nc1n[nH]c2cc(OCCOCc3ccccc3)ccc12)c1ccc(N2CCNCC2)cc1 [Cpd. 20, N-[6-(2-Benzyloxy-ethoxy)-1H-indazol-3-yl]-4-piperazin-1-yl-benzamide]",52 nM,< 50 nM,< 50 nM,< 50 nM
"CN1CCN(c2ccc(C(=O)Nc3n[nH]c4cc(OCCOCc5ccncc5)ccc34)cc2)CC1 [Cpd. 35, 4-(4-Methyl-piperazin-1-yl)-N-{6-[2-(pyridin-4-ylmethoxy)-ethoxy]-1H-indazol-3-yl}-benzamide]",2370 nM,< 50 nM,1180 nM,< 50 nM
"CN1CCN(c2ccc(C(=O)Nc3n[nH]c4cc(OCCOCc5ccccc5F)ccc34)cc2)CC1 [Cpd. 30, N-{6-[2-(2-Fluoro-benzyloxy)-ethoxy]-1H-indazol-3-yl}-4-(4-methyl-piperazin-1-yl)-benzamide]",1400 nM,< 50 nM,166 nM,< 50 nM
